# Experimental data reported in publication PMC8972196, “A Set of Experimentally Validated Decoys for the Human CC Chemokine Receptor 7 (CCR7) Obtained by Virtual Screening” (Frontiers in Pharmacology, 2022).
# Where two headings read alike, the source gives them in different places.
# Molecular target: T1, human CCR7 (Homo sapiens, UniProt P32248)
# T1 construct: expressed in transfected cells
# T1 sequence (P32248 25-378): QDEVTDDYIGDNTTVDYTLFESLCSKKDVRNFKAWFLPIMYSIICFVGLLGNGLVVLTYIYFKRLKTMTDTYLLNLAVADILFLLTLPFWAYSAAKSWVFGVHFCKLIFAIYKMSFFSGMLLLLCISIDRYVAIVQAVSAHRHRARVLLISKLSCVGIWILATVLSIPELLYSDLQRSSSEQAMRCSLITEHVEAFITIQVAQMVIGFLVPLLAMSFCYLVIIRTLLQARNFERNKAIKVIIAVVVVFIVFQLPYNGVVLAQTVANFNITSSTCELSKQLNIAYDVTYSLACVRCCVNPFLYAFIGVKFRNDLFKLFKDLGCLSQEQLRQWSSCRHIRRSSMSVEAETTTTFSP
# Experiment: CCL19-induced calcium mobilization assay, U87.CD4 cells expressing CCR7
# Format: cell-based
# Settings: for IC50: read-out: IC50 [μM] block CCL19 induced calcium signaling
# How it was run: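 Calcium mobilization was recorded in U87.CD4 cells stably carrying human CXCR2 (stimulated with CXCL8), CCR7 (stimulated with CCL19) or CCR5. Cells were plated at 20,000 cells/well, cultured overnight at 37°C in 5% CO2, and incubated 45 min at room temperature in the dark before reading.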
# [1] = CCL19 induced calcium signaling
# [2] = classification as decoy or active on CCR7
# [3] = CCL19-induced calcium signaling
# [4] = classification of tested compounds as decoy or active
Compound,IC50 [1] [µM],Decoy – 0 Active – 1 [2],IC50 [3] [µM],Decoy – 0 Active – 1 [4]
"CC(C)C1(CO)CCCN(C(=O)NCc2ccc(Cl)cc2F)C1 (stereo not shown) [C168, CC(C)C1(CO)CCCN(C(=O)NCc2ccc(Cl)cc2F)C1]",> 50,0,–,–
"COc1ccc(CNc2c(NC(C)c3ccccc3)c(=O)c2=O)cc1OC (stereo not shown) [C014, COc1ccc(CNc2c(NC(C)c3ccccc3)c(=O)c2=O)cc1OC]",–,–,> 50,0
"Cc1ccc(S(=O)(=O)N(CC(=O)Nc2cccc([N+](=O)[O-])c2)Cc2ccc(F)cc2)cc1 [C236, Cc1ccc(cc1)S(=O)(=O)N(Cc2ccc(cc2)F)CC(=O)Nc3cccc(c3)[N+](=O)[O-]]",> 50,0,–,–
"CCC1(C(N)=O)CCCN(C(=O)NCc2c(Cl)cccc2Cl)C1 (stereo not shown) [C165, CCC1(C(N)=O)CCCN(C(=O)NCc2c(Cl)cccc2Cl)C1]",> 50,0,–,–
"CCC(NS(=O)(=O)c1ccc(C)cc1)c1ccccc1OCC(=O)NC (stereo not shown) [C249, CCC(c1ccccc1OCC(=O)NC)NS(=O)(=O)c2ccc(cc2)C]",> 50,0,–,–
"FC(F)(F)c1ccccc1NC(=S)Nc1ccn(Cc2ccc(Cl)cc2)n1 [C031, FC(F)(F)c1ccccc1NC(=S)Nc1ccn(Cc2ccc(Cl)cc2)n1]",–,–,> 30,0
"Cc1sc(NC(=S)NC(=O)CCc2ccccc2)c(C(N)=O)c1C [C029, Cc1sc(NC(=S)NC(=O)CCc2ccccc2)c(C(N)=O)c1C]",–,–,> 30,0
"COc1ccc(S(=O)(=O)N(CC(=O)N2CCCC2)c2ccc(Cl)cc2)cc1 [C263, COc1ccc(cc1)S(=O)(=O)N(CC(=O)N2CCCC2)c3ccc(cc3)Cl]",> 50,0,–,–
"CC(O)c1ccc(S(=O)(=O)NC(c2ccccc2)c2nccn2C)cc1 (stereo not shown) [C247, CC(c1ccc(cc1)S(=O)(=O)NC(c2ccccc2)c3nccn3C)O]",> 50,0,–,–
"CC1CC(C)CN(C(=O)c2ccccc2NS(=O)(=O)c2ccc3[nH]c(=O)[nH]c3c2)C1 (stereo not shown) [C257, CC1CC(CN(C1)C(=O)c2ccccc2NS(=O)(=O)c3ccc4c(c3)[nH]c(=O)[nH]4)C]",> 50,0,–,–
"Cc1ccc(S(=O)(=O)C(CNS(=O)(=O)c2ccc(F)cc2)c2cccnc2)cc1 (stereo not shown) [C262, Cc1ccc(cc1)S(=O)(=O)C(CNS(=O)(=O)c2ccc(cc2)F)c3cccnc3]",> 50,0,–,–
"Cc1ccnc(NC(=S)NC(=O)c2cccc3ccccc23)c1 [C032, Cc1ccnc(NC(=S)NC(=O)c2cccc3ccccc23)c1]",–,–,> 30,0
"CN(C)C(=O)c1cccc(CN2CCC[C@@H]2C[C@H](O)c2cnn(C)c2)c1 [C110, CN(C)C(=O)c1cccc(C[N@@H+]2CCC[C@@H]2C[C@H](O)c2cnn(C)c2)c1]",–,–,> 50,0
"O=[N+]([O-])c1ccc(C(O)CNC(=S)NCc2ccc3c(c2)OCO3)cc1 (stereo not shown) [C030, OC(CNC(=S)NCc1ccc2OCOc2c1)c1ccc(cc1)[N+]([O-])=O]",–,–,> 30,0
"CCc1ccc(S(=O)(=O)NC2Cc3cc(C(=O)NC(C)C)nn3C2)cc1 (stereo not shown) [C241, CCc1ccc(cc1)S(=O)(=O)NC2Cc3cc(nn3C2)C(=O)NC(C)C]",> 50,0,–,–
"CCc1ccc(C(NC(=O)C(=O)Nc2cccnc2C)C(C)(C)C)o1 (stereo not shown) [C069, CCc1ccc(C(NC(=O)C(=O)Nc2cccnc2C)C(C)(C)C)o1]",–,–,> 10,0
"CC1(C)Cc2nc(C(C)(C)C)ncc2C(NC(=O)c2cc(C(F)(F)F)n[nH]2)C1 (stereo not shown) [C177, CC1(C)Cc2nc(C(C)(C)C)ncc2C(NC(=O)c2cc(C(F)(F)F)n[nH]2)C1]",> 50,0,–,–
"CC[C@@H](NC(=O)N1CCN(C(=O)c2ccccc2)CC1)c1cccc(C)n1 [C161, CC[C@@H](NC(=O)N1CCN(C(=O)c2ccccc2)CC1)c1cccc(C)n1]",> 50,0,–,–
"O=C(NCc1ccccc1N1CCOCC1)c1nc2ccccc2c(=O)[nH]1 [C201, O=C(NCc1ccccc1N1CCOCC1)c1nc2ccccc2c(=O)[nH]1]",> 50,0,–,–
"CCc1cc(C(=O)NCC(O)c2ccc(O)cc2)cc(=O)[nH]1 (stereo not shown) [C203, CCc1cc(C(=O)NCC(O)c2ccc(O)cc2)cc(=O)[nH]1]",> 50,0,–,–
"O=S1(=O)N=C(NCc2ccccn2)c2ccccc21 [C149, O=S1(=O)N=C(NCc2ccccn2)c2ccccc21]",–,–,> 50,0
"COC(=O)c1sccc1Nc1c(NCc2ccc(Cl)cc2)c(=O)c1=O [C009, COC(=O)c1sccc1Nc1c(NCc2ccc(Cl)cc2)c(=O)c1=O]",–,–,> 50,0

Compound,IC50 [1] [µM],Decoy – 0 Active – 1 [2],IC50 [3] [µM],Decoy – 0 Active – 1 [4]
"O=C(CN(c1ccc(Br)cc1)S(=O)(=O)c1ccccc1)Nc1ccccc1C(=O)N1CCOCC1 [C233, c1ccc(cc1)S(=O)(=O)N(CC(=O)Nc2ccccc2C(=O)N3CCOCC3)c4ccc(cc4)Br]",> 50,0,–,–
"CN(C)C(=O)c1ccc(Cl)c(NCC(=O)N(C)Cc2ccco2)c1 [C061, CN(C)C(=O)c1ccc(Cl)c(NCC(=O)N(C)Cc2ccco2)c1]",–,–,> 10,0
"CCCNC(=O)CNc1ccc(C)c(C(=O)N(C)C)c1 [C066, CCCNC(=O)CNc1ccc(C)c(C(=O)N(C)C)c1]",–,–,> 10,0
"CN(C)C(=O)c1cccc(N[C@H]2CCCN(Cc3cccc(O)c3)C2)n1 [C111, CN(C)C(=O)c1cccc(N[C@H]2CCC[N@H+](Cc3cccc(O)c3)C2)n1]",–,–,> 50,0
"O=C(NCc1ccccc1)c1cn(C2CN(C(=O)C3CC3)C2)nn1 [C081, O=C(NCc1ccccc1)c1cn(C2CN(C(=O)C3CC3)C2)nn1]",–,–,> 50,0
"Cc1ccc2c(CCNc3nc4[nH]ncc4c(=O)[nH]3)cn(C)c2c1 [C206, Cc1ccc2c(CCNc3nc4[nH]ncc4c(=O)[nH]3)cn(C)c2c1]",> 50,0,–,–
"O=C(c1ccnc(N[C@H]2CCCN(Cc3cccnc3)C2)c1)N1CCCC1 [C087, O=C(c1ccnc(N[C@H]2CCC[N@@H+](Cc3cccnc3)C2)c1)N1CCCC1]",–,–,> 50,0
"CCn1cccc(NC(=O)N2CC(Cc3ccccc3Br)C2)c1=O [C079, CCn1cccc(NC(=O)N2CC(Cc3ccccc3Br)C2)c1=O]",–,–,> 50,0
"C[C@@H](CNC(=O)N[C@H]1CCO[C@@H](C2CC2)C1)c1ccsc1 [C109, C[C@@H](CNC(=O)N[C@H]1CCO[C@@H](C2CC2)C1)c1ccsc1]",–,–,> 50,0
"COc1ccc(CCNC(=O)CN(c2ccc([N+](=O)[O-])cc2)S(=O)(=O)c2ccccc2)cc1 [C271, COc1ccc(cc1)CCNC(=O)CN(c2ccc(cc2)[N+](=O)[O-])S(=O)(=O)c3ccccc3]",> 50,0,–,–
"O=C(NC1CCCCNC1=O)NC1CCSc2ccccc21 (stereo not shown) [C202, O=C(NC1CCCCNC1=O)NC1CCSc2ccccc21]",> 50,0,–,–
"CCc1cccc(NC(=S)NNC(=O)c2cccc([N+](=O)[O-])c2)c1 [C033, CCc1cccc(NC(=S)NNC(=O)c2cccc(c2)[N+]([O-])=O)c1]",–,–,> 30,0
"COc1cccc(N(CC(=O)N2CCC(C(N)=O)CC2)S(=O)(=O)c2ccc(C)cc2)c1 [C253, Cc1ccc(cc1)S(=O)(=O)N(CC(=O)N2CCC(CC2)C(=O)N)c3cccc(c3)OC]",> 50,0,–,–
"O=S(=O)(c1cccc(F)c1)N1CC(c2cccnc2)C(c2nc(C3CCCC3)no2)C1 (stereo not shown) [C246, c1cc(cc(c1)S(=O)(=O)N2CC(C(C2)c3nc(no3)C4CCCC4)c5cccnc5)F]",> 50,0,–,–
"CC1CN(Cc2ccccc2)CCC1N(C)CC(=O)NC12CC3CC(CC(C3)C1)C2 (stereo not shown) [C281, CC1CN(Cc2ccccc2)CCC1N(C)CC(=O)NC12CC3CC(CC(C3)C1)C2]",> 50,0,–,–
"CC(C)(C(=O)NC1CCC(C(=O)O)C1)c1cccc(F)c1 (stereo not shown) [C210, CC(C)(C(=O)NC1CCC(C(=O)[O-])C1)c1cccc(F)c1]",> 50,0,–,–
"C[C@@H](CNC(=O)N[C@H]1CCC[C@@H](S(C)(=O)=O)C1)c1cccs1 [C118, C[C@@H](CNC(=O)N[C@H]1CCC[C@@H](S(C)(=O)=O)C1)c1cccs1]",–,–,> 50,0
"O=C(Nc1ccc(Cl)cc1Cl)N1CC(O)C(F)C1 (stereo not shown) [C183, O=C(Nc1ccc(Cl)cc1Cl)N1CC(O)C(F)C1]",> 50,0,–,–
"Cc1ccc(C(=O)N2CCC3(CC2)CCC3(C)O)cc1N1CCCC1=O (stereo not shown) [C224, Cc1ccc(C(=O)N2CCC3(CC2)CCC3(C)O)cc1N1CCCC1=O]",> 50,0,–,–
"O=C1C[C@H](NC(=O)CCn2cccn2)CN1 [C145, O=C1C[C@H](NC(=O)CCn2cccn2)CN1]",–,–,> 50,0
"O=C(CCCc1ccccc1)N[C@H]1CCN(CC(F)(F)F)C1=O [C096, O=C(CCCc1ccccc1)N[C@H]1CCN(CC(F)(F)F)C1=O]",–,–,> 50,0
"Cc1nc(CCCC(=O)N[C@H]2CCN(C(C)C)C2=O)cs1 [C090, Cc1nc(CCCC(=O)N[C@H]2CCN(C(C)C)C2=O)cs1]",–,–,> 50,0
